Legend:
Endothelin-1 receptor = target: T1, Endothelin-1 receptor (Homo sapiens, UniProt P25101)
T1 sequence (P25101 whole entry): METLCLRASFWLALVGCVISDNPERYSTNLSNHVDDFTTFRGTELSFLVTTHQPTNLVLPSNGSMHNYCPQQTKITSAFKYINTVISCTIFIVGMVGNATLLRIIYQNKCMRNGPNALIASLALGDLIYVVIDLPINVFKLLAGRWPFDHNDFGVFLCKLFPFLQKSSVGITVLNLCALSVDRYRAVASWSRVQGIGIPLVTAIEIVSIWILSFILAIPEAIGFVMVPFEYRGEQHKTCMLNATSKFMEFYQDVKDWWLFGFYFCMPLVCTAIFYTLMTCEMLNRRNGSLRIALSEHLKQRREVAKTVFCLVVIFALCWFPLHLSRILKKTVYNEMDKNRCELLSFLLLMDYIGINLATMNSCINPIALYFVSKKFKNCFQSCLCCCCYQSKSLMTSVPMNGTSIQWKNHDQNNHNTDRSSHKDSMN

Progesterone receptor = target: T2, Progesterone receptor (Homo sapiens, UniProt P06401); type: functional
T2 sequence (P06401 whole entry): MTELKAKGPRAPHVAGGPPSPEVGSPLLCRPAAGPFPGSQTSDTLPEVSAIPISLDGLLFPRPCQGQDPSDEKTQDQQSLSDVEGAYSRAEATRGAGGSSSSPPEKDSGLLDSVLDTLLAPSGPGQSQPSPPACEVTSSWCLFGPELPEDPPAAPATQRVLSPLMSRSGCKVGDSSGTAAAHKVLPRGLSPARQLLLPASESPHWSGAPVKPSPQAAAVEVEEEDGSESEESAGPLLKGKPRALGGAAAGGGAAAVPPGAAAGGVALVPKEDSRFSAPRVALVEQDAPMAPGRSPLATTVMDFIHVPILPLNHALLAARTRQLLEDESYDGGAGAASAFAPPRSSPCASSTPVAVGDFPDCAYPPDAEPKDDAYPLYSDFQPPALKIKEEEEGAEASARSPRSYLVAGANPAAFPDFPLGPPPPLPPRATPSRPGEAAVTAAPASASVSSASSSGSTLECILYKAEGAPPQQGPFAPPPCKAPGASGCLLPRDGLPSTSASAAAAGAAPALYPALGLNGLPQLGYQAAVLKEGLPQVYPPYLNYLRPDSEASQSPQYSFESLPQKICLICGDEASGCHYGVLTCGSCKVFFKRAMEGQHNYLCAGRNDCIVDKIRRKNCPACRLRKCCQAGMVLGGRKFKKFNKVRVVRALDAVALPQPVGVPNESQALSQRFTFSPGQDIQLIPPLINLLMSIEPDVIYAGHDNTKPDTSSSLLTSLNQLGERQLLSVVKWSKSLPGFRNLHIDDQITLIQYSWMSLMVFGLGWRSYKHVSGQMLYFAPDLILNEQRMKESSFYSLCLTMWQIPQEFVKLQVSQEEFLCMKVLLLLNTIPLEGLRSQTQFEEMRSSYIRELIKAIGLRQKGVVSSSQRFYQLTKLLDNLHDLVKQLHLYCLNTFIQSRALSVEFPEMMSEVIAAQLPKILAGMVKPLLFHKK

B2 bradykinin receptor = target: T3, B2 bradykinin receptor (Homo sapiens, UniProt P30411)
T3 sequence (P30411 whole entry): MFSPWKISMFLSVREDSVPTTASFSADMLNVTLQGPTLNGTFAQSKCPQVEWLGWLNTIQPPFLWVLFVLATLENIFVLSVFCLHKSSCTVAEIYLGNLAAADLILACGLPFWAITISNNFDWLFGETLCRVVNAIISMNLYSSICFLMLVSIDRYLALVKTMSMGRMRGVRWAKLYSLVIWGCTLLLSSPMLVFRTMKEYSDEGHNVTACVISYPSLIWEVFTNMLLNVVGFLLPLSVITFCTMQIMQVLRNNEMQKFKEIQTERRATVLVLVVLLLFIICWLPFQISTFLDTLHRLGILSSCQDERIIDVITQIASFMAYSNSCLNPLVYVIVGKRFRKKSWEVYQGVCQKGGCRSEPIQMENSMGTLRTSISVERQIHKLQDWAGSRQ

Cannabinoid receptor 1 = Cannabinoid receptor 1 (Homo sapiens, UniProt P21554)
Cannabinoid receptor 1, sequence (P21554 whole entry): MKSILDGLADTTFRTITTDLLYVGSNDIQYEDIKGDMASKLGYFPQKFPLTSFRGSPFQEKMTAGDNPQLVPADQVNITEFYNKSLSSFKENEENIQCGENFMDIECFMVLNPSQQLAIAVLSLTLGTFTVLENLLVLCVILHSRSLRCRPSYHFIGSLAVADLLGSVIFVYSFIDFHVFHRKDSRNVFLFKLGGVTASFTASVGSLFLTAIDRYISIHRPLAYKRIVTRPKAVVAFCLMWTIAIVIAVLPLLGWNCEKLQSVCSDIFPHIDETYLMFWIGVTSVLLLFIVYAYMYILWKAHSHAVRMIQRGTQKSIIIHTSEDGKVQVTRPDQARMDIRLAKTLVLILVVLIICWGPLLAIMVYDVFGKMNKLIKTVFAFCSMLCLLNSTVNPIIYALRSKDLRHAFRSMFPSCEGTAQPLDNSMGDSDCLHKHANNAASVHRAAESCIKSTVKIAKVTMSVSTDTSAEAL

Histamine H2 receptor = Histamine H2 receptor (Homo sapiens, UniProt P25021); type: functional, cell-based
Histamine H2 receptor, sequence (P25021 whole entry): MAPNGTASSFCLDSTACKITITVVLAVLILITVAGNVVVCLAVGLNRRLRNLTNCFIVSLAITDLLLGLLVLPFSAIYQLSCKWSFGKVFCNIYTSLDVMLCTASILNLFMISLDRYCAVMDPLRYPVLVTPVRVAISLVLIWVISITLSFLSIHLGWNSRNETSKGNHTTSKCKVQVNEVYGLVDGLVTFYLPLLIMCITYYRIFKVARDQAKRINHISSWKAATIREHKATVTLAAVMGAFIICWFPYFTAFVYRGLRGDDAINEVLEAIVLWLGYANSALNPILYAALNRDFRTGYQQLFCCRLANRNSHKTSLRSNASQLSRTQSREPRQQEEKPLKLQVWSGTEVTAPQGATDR

[1] = target: T4, Alpha-2A adrenergic receptor (Homo sapiens, UniProt P08913)
T4 sequence (P08913 whole entry): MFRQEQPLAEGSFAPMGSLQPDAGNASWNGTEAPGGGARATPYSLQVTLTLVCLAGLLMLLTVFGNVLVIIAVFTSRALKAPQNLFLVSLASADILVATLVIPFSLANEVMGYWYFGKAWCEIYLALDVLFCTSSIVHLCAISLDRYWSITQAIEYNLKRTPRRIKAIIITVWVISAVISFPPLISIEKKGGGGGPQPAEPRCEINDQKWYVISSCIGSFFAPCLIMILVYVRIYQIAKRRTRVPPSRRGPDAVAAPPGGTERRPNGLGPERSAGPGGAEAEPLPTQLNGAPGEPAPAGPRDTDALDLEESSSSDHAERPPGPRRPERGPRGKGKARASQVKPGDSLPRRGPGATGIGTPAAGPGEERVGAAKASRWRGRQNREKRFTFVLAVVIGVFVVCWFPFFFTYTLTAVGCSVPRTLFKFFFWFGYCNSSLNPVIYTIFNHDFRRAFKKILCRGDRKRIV

D(1A) dopamine receptor = D(1A) dopamine receptor (Homo sapiens, UniProt P21728)
D(1A) dopamine receptor, sequence (P21728 whole entry): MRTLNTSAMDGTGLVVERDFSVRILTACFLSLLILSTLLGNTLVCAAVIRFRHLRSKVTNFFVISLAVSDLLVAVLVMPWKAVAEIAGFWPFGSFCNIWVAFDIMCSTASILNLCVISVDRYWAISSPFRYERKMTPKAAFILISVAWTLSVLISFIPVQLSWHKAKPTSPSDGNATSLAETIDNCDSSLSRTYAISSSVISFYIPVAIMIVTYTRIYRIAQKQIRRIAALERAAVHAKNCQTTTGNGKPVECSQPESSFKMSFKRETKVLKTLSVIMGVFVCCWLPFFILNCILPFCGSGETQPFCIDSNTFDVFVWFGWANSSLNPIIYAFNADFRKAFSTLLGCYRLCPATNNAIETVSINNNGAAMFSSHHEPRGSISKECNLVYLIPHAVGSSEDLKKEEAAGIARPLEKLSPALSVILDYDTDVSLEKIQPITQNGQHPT

[2] = target: T5, 5-hydroxytryptamine receptor 1A (Homo sapiens, UniProt P08908)
T5 sequence (P08908 whole entry): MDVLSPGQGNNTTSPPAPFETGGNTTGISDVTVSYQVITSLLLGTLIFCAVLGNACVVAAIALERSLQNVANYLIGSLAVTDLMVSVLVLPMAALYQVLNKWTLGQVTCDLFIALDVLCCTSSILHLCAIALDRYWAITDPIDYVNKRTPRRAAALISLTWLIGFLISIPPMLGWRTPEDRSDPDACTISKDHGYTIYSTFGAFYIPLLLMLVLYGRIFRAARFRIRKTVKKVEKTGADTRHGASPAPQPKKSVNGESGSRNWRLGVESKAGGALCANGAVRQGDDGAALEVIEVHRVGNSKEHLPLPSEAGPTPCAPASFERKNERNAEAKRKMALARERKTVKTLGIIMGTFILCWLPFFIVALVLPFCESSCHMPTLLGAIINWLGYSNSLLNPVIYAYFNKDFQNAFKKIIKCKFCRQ

[3] = target: 5-hydroxytryptamine receptor 2B (Homo sapiens, UniProt P41595); type: functional, cell-based
5-hydroxytryptamine receptor 2B, sequence (P41595 whole entry): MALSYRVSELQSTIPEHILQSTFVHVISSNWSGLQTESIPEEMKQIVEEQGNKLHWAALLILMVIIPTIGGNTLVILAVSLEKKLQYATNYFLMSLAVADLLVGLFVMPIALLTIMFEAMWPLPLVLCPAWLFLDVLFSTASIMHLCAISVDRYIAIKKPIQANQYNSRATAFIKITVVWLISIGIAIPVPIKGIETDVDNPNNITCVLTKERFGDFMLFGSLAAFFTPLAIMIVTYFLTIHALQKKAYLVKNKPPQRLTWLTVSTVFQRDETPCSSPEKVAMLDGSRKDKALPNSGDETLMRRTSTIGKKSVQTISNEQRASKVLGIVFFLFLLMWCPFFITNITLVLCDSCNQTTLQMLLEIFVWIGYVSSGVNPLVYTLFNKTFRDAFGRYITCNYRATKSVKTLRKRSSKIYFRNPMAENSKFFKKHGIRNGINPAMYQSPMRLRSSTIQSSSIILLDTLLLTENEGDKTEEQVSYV

[4] = target: Prostaglandin G/H synthase 1 (Homo sapiens, UniProt P23219); type: functional
Prostaglandin G/H synthase 1, sequence (P23219 whole entry): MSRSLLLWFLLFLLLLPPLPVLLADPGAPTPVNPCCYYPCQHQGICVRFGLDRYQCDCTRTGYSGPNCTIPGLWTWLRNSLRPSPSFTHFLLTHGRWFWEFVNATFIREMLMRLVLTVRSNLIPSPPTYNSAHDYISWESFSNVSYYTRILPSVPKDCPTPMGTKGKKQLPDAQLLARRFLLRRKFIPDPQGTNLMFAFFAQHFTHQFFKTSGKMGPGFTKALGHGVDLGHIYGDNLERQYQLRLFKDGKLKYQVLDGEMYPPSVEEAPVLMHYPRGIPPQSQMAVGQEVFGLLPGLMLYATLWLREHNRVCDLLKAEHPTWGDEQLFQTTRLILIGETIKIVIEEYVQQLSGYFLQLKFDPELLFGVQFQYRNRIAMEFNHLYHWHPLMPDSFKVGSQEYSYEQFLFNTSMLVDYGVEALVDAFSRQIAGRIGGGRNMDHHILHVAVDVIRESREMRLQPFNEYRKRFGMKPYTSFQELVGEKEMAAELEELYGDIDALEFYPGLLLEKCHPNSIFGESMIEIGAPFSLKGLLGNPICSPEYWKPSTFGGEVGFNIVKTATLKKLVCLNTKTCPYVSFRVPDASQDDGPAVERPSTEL
Note: assay procedure not described here.

Compound	AC50 (Endothelin-1 receptor) [µM]	AC50 (Progesterone receptor) [µM]	AC50 (B2 bradykinin receptor) [µM]	AC50 (Cannabinoid receptor 1) [µM]	AC50 (Histamine H2 receptor) [µM]	AC50 [1] [µM]	AC50 (D(1A) dopamine receptor) [µM]	AC50 [2] [µM]	AC50 [3] [µM]	AC50 [4] [µM]
CC(C)NNC(=O)c1ccncc1 [IPRONIAZID]	> 30	> 30								
C[C@H]1C[C@@H]2[C@H]([C@@H](O)C[C@@]3(C)[C@H]2CC[C@]3(O)C(=O)CO)[C@@]2(C)C=CC(=O)C=C12 [METHYLPREDNISOLONE]			> 10	> 10	> 30					
Cc1cccc(C)c1OCC(C)N (stereo not drawn) [MEXILETINE]	> 30	> 30	> 30		> 30					
NC(=O)c1ncn([C@@H]2O[C@H](CO)[C@@H](O)[C@H]2O)c1O [MIZORIBINE]	> 30	> 30	> 30		> 30					
CCc1nn(CCCN2CCN(c3cccc(Cl)c3)CC2)c(=O)n1CCOc1ccccc1 [NEFAZODONE]	> 30		> 30							
COC(=O)C1=C(C)NC(C)=C(C(=O)OCC(C)C)C1c1ccccc1[N+](=O)[O-] (stereo not drawn) [NISOLDIPINE]		4.9	> 10		> 30					
OCCN1CCN(CCCN2c3ccccc3C=Cc3ccccc32)CC1 [OPIPRAMOL]	> 30	> 30	> 30		> 30	9.6	1.29	9.25	> 30	> 30
NC1=NC(=O)C(c2ccccc2)O1 (stereo not drawn) [PEMOLINE]			> 30		> 10					
O=C(NC[C@H]1CN(c2ccc(N3CCOCC3=O)cc2)C(=O)O1)c1ccc(Cl)s1 [RIVAROXABAN]		> 30				> 30	> 30	> 30	> 30	> 30
Cc1cc2c(cc1CC(=O)c1sccc1S(=O)(=O)Nc1onc(C)c1Cl)OCO2 [SITAXENTAN]						> 30	> 30	> 30	> 30	> 30
CNC(=O)c1cc(Oc2ccc(NC(=O)Nc3ccc(Cl)c(C(F)(F)F)c3)cc2)ccn1 [SORAFENIB]	> 30	> 30	> 30		> 30					
CS(=O)(=O)c1ccc([C@@H](O)[C@@H](CO)NC(=O)C(Cl)Cl)cc1 [THIAMPHENICOL]	> 30	> 30	> 30		> 30	> 30	> 30	> 30	> 30	> 30
CCCS(=O)(=O)Nc1ccc(F)c(C(=O)c2c[nH]c3ncc(-c4ccc(Cl)cc4)cc23)c1F [VEMURAFENIB]	> 30		> 30		> 30					
OCc1cc([C@@H](O)CNCCCCCCOCCOCc2c(Cl)cccc2Cl)ccc1O [VILANTEROL]	> 30	> 30								

From ChEMBL document CHEMBL5291721, “A preclinical secondary pharmacology resource illuminates target-adverse drug reaction associations of marketed drugs” (Nat Commun, 2023)
